The record followed here is US10703743B2 (priority 2010, dated 2020).

Experiment [1] has as its target gp120-CD4 interaction (Human immunodeficiency virus type 1 group M subtype B, UniProt P03375). Briefly: biochemical. It counts as binding, HIV-1.
In experiment [2] the test system is MT-2. Briefly: MT-2 activity. It counts as cell-based. As to conditions: Homo sapiens, MT2.
Experiment [3] concerns HIV-1 isolate JR-FL. Kind of experiment: viral inhibition assay, HIV-1 isolate JR-FL. Format: cell-based. The following applies: Human immunodeficiency virus 1, TZM-b1, read-out: IC50 JR-FL. How it is done: (§1) In this assay, viral inhibition was determined by HIV Tat-induced luciferase (Luc) reporter gene expression after a single round of virus infection in TZM-b1 cells according to the method of Platt, et al., J. Virol. 1998, 72, 2855-64.

Experiment [4] deals with HIV-1 isolate HXBc2. Briefly: viral inhibition assay, HIV-1 isolate HXBc2. It counts as cell-based. As to conditions: Human immunodeficiency virus 1, TZM-b1, read-out: IC50 HXBc2. How it is done:
as §1

Experiment [5] deals with HIV-1 isolate SF162. Briefly: viral inhibition assay, HIV-1 isolate SF162. Format: cell-based. As to conditions: Human immunodeficiency virus 1, TZM-b1, read-out: IC50 SF162. How it is done:
as §1

In experiment [6] the test system is HIV-1 isolate ADA. Kind of experiment: viral inhibition assay, HIV-1 isolate ADA. It counts as cell-based. How it is done:
as §1

Experiment [7] relates to HIV-1 isolate BaL. Briefly: viral inhibition assay, HIV-1 isolate BaL. Format: cell-based. How it is done:
as §1

The structures appear in SMILES notation. Read-outs that look alike come from different tables or passages of the source.

What is called IC50 is the point on the concentration scale where inhibition reaches its midpoint. As to `COc1ccc(-c2ccc(CNC(=O)COCCOCCOCCOCCn3cc(COCCOCCOCCOCCNc4ccc([N+](=O)[O-])cc4[N+](=O)[O-])nn3)o2)c2[nH]cc(C(=O)C(=O)N3CCN(C(=O)c4ccccc4C)CC3)c12`, the IC50 in experiment [1] was 5140 nM; in experiment [2], about 25000 nM.
Turning to `COc1ccc(-c2ccc(CNC(=O)COCCOCCOCCOCCn3cc(COCCOCCOCCOCCNc4ccc([N+](=O)[O-])cc4[N+](=O)[O-])nn3)o2)c2[nH]cc(C(=O)C(=O)N3CCN(C(=O)c4cccc(C)c4)CC3)c12`, the IC50 in experiment [1] was 1360 nM; in experiment [2] it was about 600 nM.
As for `COc1ccc(-c2ccc(CNC(=O)COCCOCCOCCOCCn3cc(COCCOCCOCCOCCNc4ccc([N+](=O)[O-])cc4[N+](=O)[O-])nn3)o2)c2[nH]cc(C(=O)C(=O)N3CCN(C(=O)c4ccncc4)CC3)c12`, the IC50 stood at 4700 nM in experiment [1] and 9300 nM in experiment [2].
Regarding `COc1ccc(-c2ccc(CNC(=O)COCCOCCOCCOCCn3cc(COCCOCCOCCOCCNc4ccc([N+](=O)[O-])cc4[N+](=O)[O-])nn3)o2)c2[nH]cc(C(=O)C(=O)N3CCN(C(=O)c4cccnc4)CC3)c12`, the 50% inhibitory concentration (IC50) in experiment [1] was 3700 nM; in experiment [2] it was 1300 nM.
Turning to `COc1ccc(-c2ccc(CNC(=O)COCCOCCOCCOCCn3cc(COCCOCCOCCOCCNc4ccc([N+](=O)[O-])cc4[N+](=O)[O-])nn3)o2)c2[nH]cc(C(=O)C(=O)N3CCN(C(=O)c4cc(O)cc(O)c4)CC3)c12`, the IC50 was 745 nM in experiment [1] and 230 nM in experiment [2].
For `COc1ccc(-c2ccc(CNC(=O)COCCOCCOCCOCCn3cc(COCCOCCOCCOCCNc4ccc([N+](=O)[O-])cc4[N+](=O)[O-])nn3)o2)c2[nH]cc(C(=O)C(=O)N3CCN(C(=O)c4ccc(CO)cc4)CC3)c12` the same measures were 422 nM and about 1000 nM.
Consider `COc1ccc(-c2ccc(CNC(=O)COCCOCCOCCOCCn3cc(COCCOCCOCCOCCNc4ccc([N+](=O)[O-])cc4[N+](=O)[O-])nn3)o2)c2[nH]cc(C(=O)C(=O)N3CCN(C(=O)c4cccc(O)c4)CC3)c12`, for which the IC50 in experiment [1] worked out at 200 nM; in experiment [2], 90 nM.
As for `COc1ccc(-c2ccc(CNC(=O)COCCOCCOCCOCCn3cc(COCCOCCOCCOCCNc4ccc([N+](=O)[O-])cc4[N+](=O)[O-])nn3)o2)c2[nH]cc(C(=O)C(=O)N3CCN(C(=O)c4ccc5ccccc5c4)CC3)c12`, the figures for the IC50 in experiment [1] and in experiment [2] were 5240 nM and about 5000 nM, respectively.
Take `COc1ccc(-c2ccc(CNC(=O)COCCOCCOCCOCCOCCOCCn3cc(COCCOCCOCCOCCNc4ccc([N+](=O)[O-])cc4[N+](=O)[O-])nn3)o2)c2[nH]cc(C(=O)C(=O)N3CCN(C(=O)c4ccccc4)CC3)c12` [C5-furan]: the IC50 was determined as 0.72 nM in experiment [3]; 10.3 nM in experiment [4]; 309 nM in experiment [5]; 6.35 nM in experiment [6] (Human immunodeficiency virus 1, TZM-b1, read-out: IC50 ADA); 34.8 nM in experiment [7] (Human immunodeficiency virus 1, BAL, TZM-b1, read-out: IC50 BaL).
As to `COc1ccnc2[nH]cc(C(=O)C(=O)N3CCN(C(=O)c4ccccc4)C[C@H]3C)c12` [BMS-378806, 4-benzoyl-1-(2-(4-methoxy-1H-pyrrolo(2,3-b)pyridin-3-yl)-1,2-dioxoethyl)-2-methyl-, (2R)-Piperazine, reference compound], the IC50 came to 2600 nM in experiment [3]; 31.9 nM in experiment [4]; 359 nM in experiment [5]; 344 nM in experiment [6] (Human immunodeficiency virus 1, HIV Tat-induced luciferase reporter gene expression after a single round of virus infection in TZM-b1 cells, read-out: IC50 ADA). In addition, in experiment [7] (HIV Tat-induced luciferase reporter gene expression after a single round of virus infection in TZM-b1 cells), the “IC50 BaL” value was “dnc”.
In the case of `COc1ccc(-c2ccc(CNC(=O)COCCOCCOCCOCCn3cc(COCCOCCOCCOCCNc4ccc([N+](=O)[O-])cc4[N+](=O)[O-])nn3)o2)c2[nH]cc(C(=O)C(=O)N3CCN(C(=O)c4ccccc4O)CC3)c12`, the IC50 is 490 nM in experiment [1] and 200 nM in experiment [2].
For `COc1ccc(-c2ccc(CNC(=O)COCCOCCOCCOCCn3cc(COCCOCCOCCOCCNc4ccc([N+](=O)[O-])cc4[N+](=O)[O-])nn3)o2)c2[nH]cc(C(=O)C(=O)N3CCN(C(=O)c4ccccn4)CC3)c12` the same measures were 620 nM and 48 nM.
Regarding `COc1ccc(-c2ccc(CNC(=O)COCCOCCOCCOCCn3cc(COCCOCCOCCOCCNc4ccc([N+](=O)[O-])cc4[N+](=O)[O-])nn3)o2)c2[nH]cc(C(=O)C(=O)N3CCN(C(=O)c4ccc(C(C)C)cc4)CC3)c12`, the IC50 in experiment [1] was determined as 953 nM.
Take `COc1ccc(-c2ccc(CNC(=O)COCCOCCOCCOCCn3cc(COCCOCCOCCOCCNc4ccc([N+](=O)[O-])cc4[N+](=O)[O-])nn3)o2)c2[nH]cc(C(=O)C(=O)N3CCN(C(=O)c4ccc(C)cc4)CC3)c12`: the IC50 in experiment [1] was found to be 447 nM; in experiment [2] it was 25 nM.
With `CCc1ccc(C(=O)N2CCN(C(=O)C(=O)c3c[nH]c4c(-c5ccc(CNC(=O)COCCOCCOCCOCCn6cc(COCCOCCOCCOCCNc7ccc([N+](=O)[O-])cc7[N+](=O)[O-])nn6)o5)ccc(OC)c34)CC2)cc1`, the results for the IC50 in experiment [1] and in experiment [2] were 469 nM and about 600 nM, respectively.
With `COc1ccc(-c2ccc(CNC(=O)COCCOCCOCCOCCn3cc(COCCOCCOCCOCCNc4ccc([N+](=O)[O-])cc4[N+](=O)[O-])nn3)o2)c2[nH]cc(C(=O)C(=O)N3CCN(C(=O)c4ccc(O)cc4)CC3)c12`, the IC50 is 239 nM in experiment [1] and 90 nM in experiment [2].
